Consider 39 compounds from patent publication US20100016274A1, “BETA-LACTAM CANNABINOID RECEPTOR MODULATORS” (priority 2006, published 2010).

The test addresses T1, cannabinoid receptor-1 (CB1), CB1R-containing cell membrane (Homo sapiens, UniProt P21554).
T1 construct: purchased Applied Cell Sciences Inc, Rockville, Md
The test can be described thus: biochemical. The test is classed as binding. As for the experimental part:
Method A using cell membranes. A compound is dissolved in DMSO and diluted to 1 M as a stock solution. […] A CB1R-containing cell membrane (Applied Cell Sciences Inc, Rockville, Md.) is diluted with binding buffer to a protein concentration of 28 μg/ml.
The mixture is incubated for 90 min at room temperature, then filtered through Whatman glass fiber C disc filter in a vacuum manifold. The filter is washed three times each with 2.5 ml cold wash buffer (binding buffer with only 2.5 mg/ml BSA). The vacuum-dried filter is transferred to a scintillation vial, treated with 3 ml Eco-Scint, and the radioactivity is read on a Beckman LS6500 scintillation counter from which an IC50 value is calculated. The corresponding Ki values are obtained from serial dilutions according to this method, and calculated through the use of a non-linear regression program (Graphpad Inc, San Diego, Calif.).

Where [1] appears, read: IC50, displacement of 3H-CP55940 (1 nM) on CB1 receptors.
The mark [2] stands for this setting: displacement of 3H-CP55940 (1 nM) on CB1 receptors, read-out: IC50.

Where two headings read alike, the source gives them in different places. Bounds are passed on as bounds.

T1 sequence (P21554 whole entry, species assumed): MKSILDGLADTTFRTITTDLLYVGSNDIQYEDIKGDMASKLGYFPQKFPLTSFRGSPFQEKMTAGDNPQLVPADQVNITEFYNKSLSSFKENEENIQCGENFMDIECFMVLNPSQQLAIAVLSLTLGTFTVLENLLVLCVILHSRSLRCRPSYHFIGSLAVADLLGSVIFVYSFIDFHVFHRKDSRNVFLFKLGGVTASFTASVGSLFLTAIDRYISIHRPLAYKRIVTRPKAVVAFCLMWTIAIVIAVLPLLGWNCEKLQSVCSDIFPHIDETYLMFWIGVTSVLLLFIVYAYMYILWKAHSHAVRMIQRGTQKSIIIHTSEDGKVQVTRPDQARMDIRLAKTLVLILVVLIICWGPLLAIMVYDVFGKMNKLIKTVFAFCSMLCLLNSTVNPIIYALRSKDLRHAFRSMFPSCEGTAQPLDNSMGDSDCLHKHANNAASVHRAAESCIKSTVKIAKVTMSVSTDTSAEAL

The compound `O=C(N[C@@H]1CCCc2ccccc21)[C@H](CCC(=O)N1CCN(C2CCCCCC2)CC1)N1C(=O)[C@@H](N2C(=O)OC[C@@H]2c2ccccc2)[C@H]1/C=C/c1ccccc1` [Example 73A] yielded an IC50 under setting [1] below 10 µM.
Same read-out and setting: the value for `O=C(CC[C@@H](C(=O)N1CCc2ccccc2C1)N1C(=O)[C@@H](N2C(=O)OC[C@@H]2c2ccccc2)[C@H]1/C=C/c1ccccc1)N1CCN(C2CCCCC2)CC1` [Example 38BM] was below 10 µM.
Same read-out and setting: the same measure for `Cc1cccc(CNC(=O)[C@H](CCC(=O)N2CCN(C3CCCCC3)CC2)N2C(=O)[C@@H](N3C(=O)OC[C@@H]3c3ccccc3)[C@H]2/C=C/c2ccccc2)c1` [Example 38V]: below 10 µM; for `CC(C)(NC(=O)[C@H](CCC(=O)N1CCN(C2CCCCC2)CC1)N1C(=O)[C@@H](N2C(=O)OC[C@@H]2c2ccccc2)[C@H]1/C=C/c1ccccc1)c1ccccc1` [Example 38AG]: below 10 µM; for `O=C(CC[C@@H](C(=O)N1CCN(C2CCCCC2)CC1)N1C(=O)[C@@H](N2C(=O)OC[C@@H]2c2ccccc2)[C@H]1/C=C/c1ccccc1)NCc1ccc(Cl)c(Cl)c1` [Example 37M]: below 10 µM.
Still for that read-out and setting: the same measure for `O=C(CC[C@@H](C(=O)N1CCN(C2CCCCC2)CC1)N1C(=O)[C@@H](N2C(=O)OC[C@@H]2c2ccccc2)[C@H]1/C=C/c1ccccc1)N1CCC(Cc2ccccc2)CC1` [Example 37AD]: below 10 µM; for `O=C(CC[C@@H](C(=O)N1CCN(C2CCCCC2)CC1)N1C(=O)[C@@H](N2C(=O)OC[C@@H]2c2ccccc2)[C@H]1/C=C/c1ccccc1)NCc1cccc(Cl)c1Cl` [Example 37P]: below 10 µM.
`O=C(NCc1ccc(F)c(Cl)c1)[C@H](CCC(=O)N1CCN(C2CCCCC2)CC1)N1C(=O)[C@@H](N2C(=O)OC[C@@H]2c2ccccc2)[C@H]1/C=C/c1ccccc1` [Example 38O]: the IC50 under setting [1] was below 10 µM.
For the compound `O=C(CC[C@@H](C(=O)N1CCN(c2ccccn2)CC1)N1C(=O)[C@@H](N2C(=O)OC[C@@H]2c2ccccc2)[C@H]1/C=C/c1ccccc1)NCc1cc(F)cc(C(F)(F)F)c1` [Example 73F], the IC50 under setting [2] was around 10 µM.
Under setting [1], `O=C(CC[C@@H](C(=O)N1CCN(C2CCCCC2)CC1)N1C(=O)[C@@H](N2C(=O)OC[C@@H]2c2ccccc2)[C@H]1/C=C/c1ccccc1)NCc1ccc2c(c1)OCO2` [Example 37AC] returned a half-inhibitory concentration (IC50) below 10 µM.
On the same count and under the same terms, the value for `O=C(CC[C@@H](C(=O)N1CCN(C2CCCCC2)CC1)N1C(=O)[C@@H](N2C(=O)OC[C@@H]2c2ccccc2)[C@H]1/C=C/c1ccccc1)Nc1cccc(C(F)(F)F)c1` [Example 37AE] was below 10 µM; that for `O=C(NCc1cccc2ccccc12)[C@H](CCC(=O)N1CCN(C2CCCCC2)CC1)N1C(=O)[C@@H](N2C(=O)OC[C@@H]2c2ccccc2)[C@H]1/C=C/c1ccccc1` [Example 38BL] was below 10 µM.
Still for that read-out and setting: the same measure for `O=C(CC[C@@H](C(=O)N1CCN(C2CCCCC2)CC1)N1C(=O)[C@@H](N2C(=O)OC[C@@H]2c2ccccc2)[C@H]1/C=C/c1ccccc1)NCc1cc(Cl)ccc1Cl` [Example 37O]: below 10 µM; for `O=C(CC[C@@H](C(=O)N1CCN(C2CCCCC2)CC1)N1C(=O)[C@@H](N2C(=O)OC[C@@H]2c2ccccc2)[C@H]1/C=C/c1ccccc1)NC1CCc2ccccc21` (stereo partly drawn) [Example 37V]: below 10 µM.
On to `O=C(NC1CCCc2ccccc21)[C@H](CCC(=O)N1CCN(C2CCCCC2)CC1)N1C(=O)[C@@H](N2C(=O)OC[C@@H]2c2ccccc2)[C@H]1/C=C/c1cccs1` (stereo partly drawn) [Example 72C], for which the concentration for half-maximal inhibition (IC50) under setting [1] is around 10 µM.
For the compound `O=C(CC[C@@H](C(=O)N1CCN(CCc2cccs2)CC1)N1C(=O)[C@@H](N2C(=O)OC[C@@H]2c2ccccc2)[C@H]1/C=C/c1ccccc1)NCc1cc(F)cc(C(F)(F)F)c1` [Example 73G], under setting [2], the half-inhibitory concentration (IC50) was around 10 µM.
`O=C(CC[C@@H](C(=O)N1CCN(CCC2CCCCC2)CC1)N1C(=O)[C@@H](N2C(=O)OC[C@@H]2c2ccccc2)[C@H]1/C=C/c1ccccc1)NCc1cc(F)cc(C(F)(F)F)c1` [Example 73E]: the half-maximal inhibitory concentration (IC50) under setting [1] was below 10 µM.
On to `O=C(NC1CCCc2ccccc21)[C@H](CCC(=O)N1CCN(C2CCCCC2)CC1)N1C(=O)[C@@H](N2C(=O)OC[C@@H]2c2ccccc2)[C@H]1/C=C/c1cccc2ccsc12` (stereo partly drawn) [Example 72A], for which the IC50 under setting [2] was around 10 µM.
`O=C(CC[C@@H](C(=O)N1CCN(C2CCCCC2)CC1)N1C(=O)[C@@H](N2C(=O)OC[C@@H]2c2ccccc2)[C@H]1/C=C/c1ccccc1)NCCOc1ccccc1` [Example 37AB] showed a half-maximal inhibitory concentration (IC50) under setting [1] below 10 µM.
The same measure, in the same setting: the value for `CCCN1CCN(C(=O)CC[C@@H](C(=O)NCc2cccc(C(F)(F)F)c2)N2C(=O)[C@@H](N3C(=O)OC[C@@H]3c3ccccc3)[C@H]2/C=C/c2ccccc2)CC1` [Example 35AJ] was below 10 µM; that for `O=C(NCc1ccc(C(F)(F)F)cc1)[C@H](CCC(=O)N1CCN(C2CCCCC2)CC1)N1C(=O)[C@@H](N2C(=O)OC[C@@H]2c2ccccc2)[C@H]1/C=C/c1ccccc1` [Example 38BH] was below 10 µM.
Still for that read-out and setting: the value for `O=C(NCc1cc(F)cc(F)c1)[C@H](CCC(=O)N1CCN(C2CCCCC2)CC1)N1C(=O)[C@@H](N2C(=O)OC[C@@H]2c2ccccc2)[C@H]1/C=C/c1ccccc1` [Example 38N] was around 10 µM.
As for `O=C(N[C@@H]1CCCc2ccccc21)[C@H](CCC(=O)N1CCN(C2CCSCC2)CC1)N1C(=O)[C@@H](N2C(=O)OC[C@@H]2c2ccccc2)[C@H]1/C=C/c1ccccc1` [Example 73B], the concentration for half-maximal inhibition (IC50) under setting [2] was around 10 µM.
`O=C(C[C@@H](C(=O)NCc1cccc(C(F)(F)F)c1)N1C(=O)[C@@H](N2C(=O)OC[C@@H]2c2ccccc2)[C@H]1CCc1ccccc1)NC1CCN(Cc2ccccc2)CC1` [Example 53A, 2(S)-[[(1-Benzylpiperidin-4-yl)amino]carbonylmethyl]-2-[3 (S)-(4(S)-phenyloxazolidin-2-on-3-yl)-4(R)-(2-phenyleth-1-yl)azetidin-2-on-1-yl]acetic acid N-(3-trifluoromethylbenzyl)amide]: the IC50 under setting [1] was below 10 µM.
As to `COc1cccc([C@@H](C)NC(=O)[C@H](CCC(=O)N2CCN(C3CCCCC3)CC2)N2C(=O)[C@@H](N3C(=O)OC[C@@H]3c3ccccc3)[C@H]2/C=C/c2ccccc2)c1` [Example 38AE], the concentration for half-maximal inhibition (IC50) under setting [1] was below 10 µM.
On the same count and under the same terms, the value for `O=C(CC[C@@H](C(=O)N1CCN(C2CCCCC2)CC1)N1C(=O)[C@@H](N2C(=O)OC[C@@H]2c2ccccc2)[C@H]1/C=C/c1ccccc1)NCc1cc(Cl)cc(Cl)c1` [Example 37N] was below 10 µM; that for `COc1cc(CNC(=O)[C@H](CCC(=O)N2CCN(C3CCCCC3)CC2)N2C(=O)[C@@H](N3C(=O)OC[C@@H]3c3ccccc3)[C@H]2/C=C/c2ccccc2)cc(OC)c1` [Example 38AD] was below 10 µM.
“2(S)-(tert-Butoxycarbonylaminopropyl)-2-[3(S)-(4(S)-phenyloxazolidin-2-on-3-yl)-4(R)-(styr-2-yl)azetidin-2-on-1-yl]acetic acid N-(3-trifluoromethylbenzyl)amide [Example 20Q]”: the IC50 under setting [2] was below 10 µM.
In the case of `O=C(CC[C@@H](C(=O)N1CCN(C2CCCCC2)CC1)N1C(=O)[C@@H](N2C(=O)OC[C@@H]2c2ccccc2)[C@H]1/C=C/c1ccccc1)NCc1cccc(OC(F)(F)F)c1` [Example 37L], under setting [1], the IC50 is below 10 µM.
The same measure, in the same setting: the value for `CC(C)NC(=O)CN1CCN(C(=O)CC[C@@H](C(=O)NCc2cccc(C(F)(F)F)c2)N2C(=O)[C@@H](N3C(=O)OC[C@@H]3c3ccccc3)[C@H]2/C=C/c2ccccc2)CC1` [Example 35AK] was below 10 µM; that for `O=C(CC[C@@H](C(=O)N1CCN(C2CCCCC2)CC1)N1C(=O)[C@@H](N2C(=O)OC[C@@H]2c2ccccc2)[C@H]1/C=C/c1ccccc1)NCC1CCCCC1` [Example 37AA] was below 10 µM; that for `COc1cccc(CNC(=O)[C@H](CCC(=O)N2CCN(C3CCCCC3)CC2)N2C(=O)[C@@H](N3C(=O)OC[C@@H]3c3ccccc3)[C@H]2/C=C/c2ccccc2)c1` [Example 38L] was around 10 µM.
On the same count and under the same terms, the same measure for `O=C(NCc1cccc(C(F)(F)F)c1)[C@H](CCC(=O)N1CCN(C2CCCCC2)CC1)N1C(=O)[C@H](N2C(=O)OC[C@@H]2c2ccccc2)[C@@H]1/C=C/c1ccccc1` [Example 73C]: around 10 µM; for `O=C(CC[C@@H](C(=O)N1CCN(C2CCCCC2)CC1)N1C(=O)[C@@H](N2C(=O)OC[C@@H]2c2ccccc2)[C@H]1/C=C/c1ccccc1)NCc1cccc(C(F)(F)F)c1F` [Example 37T]: below 10 µM; for `O=C(NCc1ccccc1C(F)(F)F)[C@H](CCC(=O)N1CCN(C2CCCCC2)CC1)N1C(=O)[C@@H](N2C(=O)OC[C@@H]2c2ccccc2)[C@H]1/C=C/c1ccccc1` [Example 38K]: around 10 µM.
Turning to `O=C(NCc1cccc(F)c1)[C@H](CCC(=O)N1CCN(C2CCCCC2)CC1)N1C(=O)[C@@H](N2C(=O)OC[C@@H]2c2ccccc2)[C@H]1/C=C/c1ccccc1` [Example 38M], the IC50 under setting [1] was around 10 µM.
In the case of `C[C@@H](NC(=O)[C@H](CCC(=O)N1CCN(C2CCCCC2)CC1)N1C(=O)[C@@H](N2C(=O)OC[C@@H]2c2cccc(Cl)c2)[C@H]1/C=C/c1ccccc1)c1ccccc1` [Example 73H], the concentration for half-maximal inhibition (IC50) under setting [2] is around 10 µM.
Consider `O=C(CC[C@@H](C(=O)N1CCN(C2CCCCC2)CC1)N1C(=O)[C@@H](N2C(=O)OC[C@@H]2c2ccccc2)[C@H]1/C=C/c1ccccc1)N1CCC(n2c(O)nc3ccccc32)CC1` [Example 37W], for which the 50% inhibitory concentration (IC50) under setting [1] was below 10 µM.
As to `O=C(NCCc1ccccc1)[C@H](CCC(=O)N1CCN(C2CCCCC2)CC1)N1C(=O)[C@@H](N2C(=O)OC[C@@H]2c2ccccc2)[C@H]1/C=C/c1ccccc1` [Example 38AC], the half-maximal inhibitory concentration (IC50) under setting [1] is below 10 µM.
